From patent US20220378706A1, “PHARMACEUTICAL COMPOSITION COMPRISING PDE9 INHIBITOR” (Eisai R&D Management Co., Ltd., priority 2017, published 2022)
Where “and” joins values, the source holds several entries; their conditions need not be identical. Equal values may be shown once. Read-outs that look alike come from different tables or passages of the source.

Assay: Single dose clinical study: plasma Compound A pharmacokinetics
Assay type: in vivo, human
Conditions: for AUC(0-inf) / Cmax / Vd/F / half-life / Tmax / AUC(0-t): human, po; for AUC(0-inf): read-out: AUC(0-inf) GM; for Tmax: read-out: tmax Median; for tlag Median (Min, Max): Part B 100 mg cohort
Experimental: This was a single center, single dose, randomized, double blind, placebo controlled study in healthy subjects. It consisted of 4 parts: Parts A, B, C, and D. Each of the four study parts had 2 phases: Prerandomization Phase and Randomization Phase. The Prerandomization Phase lasted up to 30 days and consisted of a Screening Period and a Baseline Period, during which each subject's study eligibility was determined and baseline assessments were performed.
In Part A, there were 8 sequential cohorts of healthy adult subjects (18-50 years of age). Subjects were randomly assigned to Compound A or placebo in a ratio of 6:2, respectively. Subjects in the Compound A cohorts were treated with single ascending doses of 10, 25, 50, 100, 200, 400, 800, or 1200 mg.
In Part B, there were 4 cohorts of healthy adult subjects (18-50 years of age). There were 8 subjects in Cohort 1, with 6 subjects randomly assigned to receive single doses of Compound A (400 mg) and 2 subjects randomly assigned to receive placebo. There were 7 subjects in Cohort 2 and Cohort 3, each with 6 subjects randomly assigned to receive single doses of Compound A (100 and 200 mg, respectively) and 1 subject randomly assigned to receive placebo. The dose of 100 mg selected in Cohort 2 was based on preliminary analysis of Cohort 1 data; this dose was predicted from PK/PD modeling to achieve a sustained CSF cGMP increase from baseline of approximately 200% when administered to steady state, and thereby provided a potentially therapeutic dose for further evaluation in future studies. There were 7 subjects in Cohort 4, with 6 subjects randomly assigned to receive a single dose of Compound A (50 mg [n=3] or 75 mg [n=3]) and 1 subject randomly assigned to receive placebo. The doses for Cohorts 3 and 4 were selected based on PK/PD modeling of the data in Cohorts 1 and 2.
Subjects in Cohort 2 who had received Compound A 100 mg or placebo under fasted conditions (1st Treatment Period) also participated in an evaluation of food effect on the PK of Compound A (2nd Treatment Period). After a washout period of at least 13 days (or 5 half-lives of Compound A, whichever was longer), subjects were admitted to the clinic for baseline assessments (2nd Baseline Period) and then received a single dose of the same treatment (Compound A 100 mg or placebo) after consuming a high fat and high calorie meal over 30 minutes. Blood PK samples were collected at prespecified time points. Safety evaluations were also assessed. CSF was not collected for PD evaluation during the 2nd Treatment Period. A Follow Up Visit occurred on Day 10 of Treatment Period 2.
In Part C, there was 1 cohort of 8 healthy elderly subjects (65 to 85 years of age) randomly assigned to receive a single dose of Compound A 100 mg or placebo in a ratio of 6:2, respectively.
In Part D, 3 cohorts of healthy adult Japanese subjects were randomized in parallel. There were 7 subjects in each cohort and subjects were randomly assigned to receive single doses of Compound A (25, 100, or 400 mg) or placebo in a ratio of 6:1, respectively.
Blood samples for determination of plasma Compound A concentrations were collected from predose to 216 hours postdose. On Day 1, blood PK samples were collected at predose and postdose 0.5 (30 minutes), 1, 1.5, 2, 3, 4, 5, 6, 8, 12, and 18 hours. Thereafter, samples were collected on Day 2 (24 and 36 hours postdose), Day 3 (48 hours postdose), Day 4 (72 hours postdose), Day 5 (96 hours postdose), Day 6 (120 hours postdose), Day 7 (144 hours postdose), and Day 10 (216 hours postdose).
Blood samples for determination of plasma Compound A concentrations were collected from predose to 216 hours postdose. For all cohorts, blood PK samples were collected on Day 1 at predose and postdose at 0.5 (30 minutes), 1, 1.5, 2, 3, 4, 5, 6, 8, 10, 12, and 18 hours. […]

[1] = plasma, 400 mg, plasma, Non-Japanese Subjects (Parts A,B), single oral 400 mg
[2] = plasma, 400 mg, plasma, healthy adults (Parts A,B), single oral 400 mg, fasted
[3] = plasma, 800 mg, plasma, healthy adults (Parts A,B), single oral 800 mg, fasted
[4] = plasma, 1200 mg, plasma, healthy adults (Parts A,B), single oral 1200 mg, fasted
[5] = plasma, healthy adults (Parts A,B), single oral 10 mg, fasted
[6] = plasma, healthy adults (Parts A,B), single oral 25 mg, fasted
[7] = plasma, healthy adults (Parts A,B), single oral 50 mg, fasted
[8] = plasma, healthy adults (Parts A,B), single oral 75 mg, fasted
[9] = plasma, healthy adults (Parts A,B), single oral 100 mg, fasted
[10] = plasma, healthy adults (Parts A,B), single oral 200 mg, fasted
[11] = plasma, healthy adults (Parts A,B), single oral 400 mg, fasted
[12] = plasma, healthy adults (Parts A,B), single oral 800 mg, fasted
[13] = plasma, healthy adults (Parts A,B), single oral 1200 mg, fasted

Structure (SMILES): COc1ncc(C)c(-c2ccc3c(c2)[nH]c(=O)c2cnn([C@H]4CCOC4)c23)c1C [Compound A, (S)-7-(2-methoxy-3,5-dimethylpyridin-4-yl)-1-(tetrahydrofuran-3-yl)-1H-pyrazolo[4,3-c]quin olin-4(5H)-one]
- AUC(0-inf) [1]: 35800 ng·h/mL
- Cmax (plasma, 400 mg, plasma, Non-Japanese Subjects (Parts A,B), single oral 400 mg, read-out: Cmax GM (% CV)): 827 ng/mL
- Vd/F (plasma, 400 mg, plasma, Non-Japanese Subjects (Parts A,B), single oral 400 mg, read-out: Vz/F GM (% CV)): 511 L
- half-life (plasma, 400 mg, plasma, Non-Japanese Subjects (Parts A,B), single oral 400 mg, read-out: t1/2 Mean (SD) (converted)): 34.5 h
- Tmax [1]: 3 h
- AUC(0-t) (plasma, 400 mg, plasma, healthy adults (Parts A,B), single oral 400 mg, fasted, read-out: AUC(0-24 h) GM): 12500 ng·h/mL
- AUC(0-t) (plasma, 400 mg, plasma, healthy adults (Parts A,B), single oral 400 mg, fasted, read-out: AUC(0-30 h) GM): 15200 ng·h/mL
- AUC(0-t) (plasma, 400 mg, plasma, healthy adults (Parts A,B), single oral 400 mg, fasted, read-out: AUC(0-72 h) GM): 27000 ng·h/mL
- AUC(0-inf) [2]: 36300 ng·h/mL
- AUC(0-t) (plasma, 400 mg, plasma, healthy adults (Parts A,B), single oral 400 mg, fasted, read-out: AUC(0-t) GM): 35500 ng·h/mL
- Cmax (plasma, 400 mg, plasma, healthy adults (Parts A,B), single oral 400 mg, fasted, read-out: Cmax GM): 880 ng/mL
- Vd/F (plasma, 400 mg, plasma, healthy adults (Parts A,B), single oral 400 mg, fasted, read-out: Vz/F GM): 493 L
- half-life (plasma, 400 mg, plasma, healthy adults (Parts A,B), single oral 400 mg, fasted, read-out: t1/2 Mean (converted)): 33.2 h
- Tmax [2]: 2.5 h
- AUC(0-t) (plasma, 800 mg, plasma, healthy adults (Parts A,B), single oral 800 mg, fasted, read-out: AUC(0-24 h) GM): 29200 ng·h/mL
- AUC(0-t) (plasma, 800 mg, plasma, healthy adults (Parts A,B), single oral 800 mg, fasted, read-out: AUC(0-30 h) GM): 34500 ng·h/mL
- AUC(0-t) (plasma, 800 mg, plasma, healthy adults (Parts A,B), single oral 800 mg, fasted, read-out: AUC(0-72 h) GM): 54700 ng·h/mL
- AUC(0-inf) [3]: 65000 ng·h/mL
- AUC(0-t) (plasma, 800 mg, plasma, healthy adults (Parts A,B), single oral 800 mg, fasted, read-out: AUC(0-t) GM): 64300 ng·h/mL
- Cmax (plasma, 800 mg, plasma, healthy adults (Parts A,B), single oral 800 mg, fasted, read-out: Cmax GM): 2570 ng/mL
- Vd/F (plasma, 800 mg, plasma, healthy adults (Parts A,B), single oral 800 mg, fasted, read-out: Vz/F GM): 438 L
- half-life (plasma, 800 mg, plasma, healthy adults (Parts A,B), single oral 800 mg, fasted, read-out: t1/2 Mean (converted)): 25.2 h
- Tmax [3]: 3.55 h
- AUC(0-t) (plasma, 1200 mg, plasma, healthy adults (Parts A,B), single oral 1200 mg, fasted, read-out: AUC(0-24 h) GM): 28500 ng·h/mL
- AUC(0-t) (plasma, 1200 mg, plasma, healthy adults (Parts A,B), single oral 1200 mg, fasted, read-out: AUC(0-30 h) GM): 34800 ng·h/mL
- AUC(0-t) (plasma, 1200 mg, plasma, healthy adults (Parts A,B), single oral 1200 mg, fasted, read-out: AUC(0-72 h) GM): 60600 ng·h/mL
- AUC(0-inf) [4]: 79700 ng·h/mL
- AUC(0-t) (plasma, 1200 mg, plasma, healthy adults (Parts A,B), single oral 1200 mg, fasted, read-out: AUC(0-t) GM): 78400 ng·h/mL
- Cmax (plasma, 1200 mg, plasma, healthy adults (Parts A,B), single oral 1200 mg, fasted, read-out: Cmax GM): 1780 ng/mL
- Vd/F (plasma, 1200 mg, plasma, healthy adults (Parts A,B), single oral 1200 mg, fasted, read-out: Vz/F GM): 666 L
- half-life (plasma, 1200 mg, plasma, healthy adults (Parts A,B), single oral 1200 mg, fasted, read-out: t1/2 Mean (converted)): 31.9 h
- Tmax [4]: 3.02 h
- tlag Median (Min, Max) (plasma, single oral 100 mg, Fasted): 0 (0.00, 0.00) h
- tlag Median (Min, Max) (plasma, single oral 100 mg, Fed (high-fat meal)): 0.49 (0.00, 0.88) h
- CL/F GM [5]: 5.41 L/h
- tlag Median [5]: 0.50 h
- CL/F GM [6]: 5.76 L/h
- tlag Median [6]: 0.00 h
- CL/F GM [7]: 6.33 L/h
- tlag Median [7]: 0.00 h
- CL/F GM [8]: 7.57 L/h
- tlag Median [8]: 0.00 h
- AUC(0-inf) GM [9]: 15000 (20.0) h × ng/mL
- CL/F GM [9]: 6.66 L/h and 6.66 (20.1) L/h
- Cmax GM [9]: 373 (19.8) ng/mL
- t1/2 Mean [9]: 28.6 (6.73) h
- tlag Median [9]: 0.00 h
- CL/F GM [10]: 8.93 L/h
- tlag Median [10]: 0.00 h
- CL/F GM [11]: 11.0 L/h
- tlag Median [11]: 0.00 h
- CL/F GM [12]: 12.3 L/h
- tlag Median [12]: 0.00 h
- CL/F GM [13]: 15.1 L/h
- tlag Median [13]: 0.00 h
- time to quantifiable plasma concentrations postdose (most subjects) (single doses of 10 to 1200 mg): ≤ 0.5 h
